Patent publication US5250679A, “Nonpeptidyl platelet aggregation inhibitors having specificity for the GPIIb III receptor” (Genentech, Inc., priority 1992, dated 1993)

Columns and labels:
[1] = test system: human platelet rich plasma (PRP); test: In Vitro Human Platelet Aggregation Assay (PA); format: cell-based; conditions: Homo sapiens, Platelet, citrate; read-out: PA IC50 (μM) (citrate)
Procedure: In addition to the GPIIb IIIa ELISA assay, platelet aggregation assays may be performed in human platelet rich plasma (PRP). […] The blood is centrifuged at 160×g for 10 min at 22° C. and then allowed to stand for 5 min after which the PRP is decanted. Platelet poor plasma (PPP) is isolated from the remaining blood after centrifugation at 2000×g for 25 min. The platelet count of the PRP is adjusted to ca. 300,000 per microliter with PPP.
A 225 mL aliquot of PRP plus 25 mL of either a dilution of the test sample or a control (PBS) is incubated for 5 min in a Chrono-log Whole Blood Aggregometer at 25° C. An aggregating agent (collagen, 1 mg/ml; U46619, 100 ng/ml; or ADP, 8 mM) is added and the platelet aggregation recorded.
Platelet aggregation assays are performed in human platelet rich plasma (PRP). […] The blood is centrifuged at 160×g for 10 minutes at 22° C. and allowed to stand for 5 minutes after which the PRP is decanted. Platelet poor plasma (PPP) is isolated from the remaining blood after centrifugation at 2000×g for 25 minutes. The platelet count of the PRP is diluted to about 300,000 platelets per microliter with PPP.
A 225 ml aliquot of PRP plus 25 ml of either a dilution of the test inhibitor sample or a control (PBS) is incubated for 5 minutes in a Chrono-log Whole Blood Aggregometer at 25° C. An aggregating agent (collagen, 1 mg/ml; U46619, 100 ng/ml; or ADP, 17 mM) is added and the transmission is recorded.

[2] = target: T1, Human Vitronectin receptor (av b3) (Homo sapiens, UniProt P05106+P06756); test: Human Vitronectin-Vitronectin Receptor (av b3) ELISA Assay (Vn/VnR); format: binding; conditions: Example 30, G # table
T1 construct: is purified from human placenta; from tissue; host or cells: human placenta
T1 sequence (P06756 31-889 limits assumed): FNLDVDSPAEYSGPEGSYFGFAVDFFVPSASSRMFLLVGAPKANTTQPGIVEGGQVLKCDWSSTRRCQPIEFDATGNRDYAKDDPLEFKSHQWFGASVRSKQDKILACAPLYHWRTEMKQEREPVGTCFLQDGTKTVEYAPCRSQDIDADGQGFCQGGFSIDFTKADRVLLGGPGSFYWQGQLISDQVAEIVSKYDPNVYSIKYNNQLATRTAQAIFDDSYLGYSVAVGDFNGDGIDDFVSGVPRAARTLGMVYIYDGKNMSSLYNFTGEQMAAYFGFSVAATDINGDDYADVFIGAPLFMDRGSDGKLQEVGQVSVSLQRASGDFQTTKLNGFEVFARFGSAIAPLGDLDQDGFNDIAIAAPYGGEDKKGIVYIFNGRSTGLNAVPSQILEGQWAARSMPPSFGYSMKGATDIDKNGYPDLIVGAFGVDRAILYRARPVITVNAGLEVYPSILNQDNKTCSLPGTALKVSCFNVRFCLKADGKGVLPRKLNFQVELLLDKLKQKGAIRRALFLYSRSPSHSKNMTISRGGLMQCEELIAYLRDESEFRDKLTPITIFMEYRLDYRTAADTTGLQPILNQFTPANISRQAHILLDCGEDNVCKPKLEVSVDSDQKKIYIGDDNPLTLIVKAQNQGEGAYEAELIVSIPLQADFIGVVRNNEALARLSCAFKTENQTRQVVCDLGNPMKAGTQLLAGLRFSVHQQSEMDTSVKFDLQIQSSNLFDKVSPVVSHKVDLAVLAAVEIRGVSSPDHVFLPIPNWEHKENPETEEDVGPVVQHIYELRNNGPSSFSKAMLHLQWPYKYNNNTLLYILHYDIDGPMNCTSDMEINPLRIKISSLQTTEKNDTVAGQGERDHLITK
T1 sequence (P06756 891-1048 partner limits assumed): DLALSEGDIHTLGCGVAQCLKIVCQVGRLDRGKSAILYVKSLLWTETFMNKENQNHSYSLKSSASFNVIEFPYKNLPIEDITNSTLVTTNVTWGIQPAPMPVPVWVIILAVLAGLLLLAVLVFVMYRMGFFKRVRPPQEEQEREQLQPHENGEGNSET
T1 sequence (P05106 27-788): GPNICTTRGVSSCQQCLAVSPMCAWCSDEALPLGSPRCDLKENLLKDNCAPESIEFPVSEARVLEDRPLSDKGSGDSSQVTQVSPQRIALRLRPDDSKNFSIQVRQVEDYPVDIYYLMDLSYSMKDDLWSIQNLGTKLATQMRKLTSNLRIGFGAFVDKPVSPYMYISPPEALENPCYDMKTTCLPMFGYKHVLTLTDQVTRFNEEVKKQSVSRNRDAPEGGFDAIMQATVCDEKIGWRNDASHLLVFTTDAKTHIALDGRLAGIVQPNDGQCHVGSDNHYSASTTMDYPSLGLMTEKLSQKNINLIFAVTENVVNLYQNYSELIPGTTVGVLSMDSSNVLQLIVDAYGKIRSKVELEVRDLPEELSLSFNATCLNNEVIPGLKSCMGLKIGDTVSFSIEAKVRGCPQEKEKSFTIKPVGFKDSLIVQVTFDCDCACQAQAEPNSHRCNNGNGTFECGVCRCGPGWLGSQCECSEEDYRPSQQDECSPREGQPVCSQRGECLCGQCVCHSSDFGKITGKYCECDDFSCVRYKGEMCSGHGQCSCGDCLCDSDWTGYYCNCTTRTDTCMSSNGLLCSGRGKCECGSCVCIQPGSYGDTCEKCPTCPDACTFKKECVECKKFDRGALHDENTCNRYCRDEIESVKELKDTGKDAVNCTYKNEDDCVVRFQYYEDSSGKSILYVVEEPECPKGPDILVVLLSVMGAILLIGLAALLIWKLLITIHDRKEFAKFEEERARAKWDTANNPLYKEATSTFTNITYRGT
Excerpt: Human vitronectin (Vn) is isolated from human plasma and purified by affinity chromatography by the method of Yatohgo et. al., (Cell Structure and Function 13: 281-292 [1988]).
Human vitronection receptor (VnR) is purified from human placenta by the method of Pytela et al., (Methods Enzymol., 144: 475 [1987]). Alternatively the av b3 receptor can be purified from some cell lines (e.g., human embryonic kidney 293 cells) transfected with DNA sequences for both the av and b3 subunits. The subunits are purified by employing octylglucoside extraction followed by Con-A, Heparin-Sepharose, and S-300 Chromatography.
This mouse Mab is specific for the b3 subunit of the vitronectin receptor.
Rabbit Fab 2 anti-mouse Fc fragment horse radish peroxidase conjugate (anti-MuFc HRP) is obtained from PelFreeze (cat. no. 715305-1).
Maxisorp microtiter plates are coated with 2 mg/ml human vitronectin dissolved in PBS (50 ml/well) and stored overnight at 4° C. The plates are washed two times with PBS-0.05% Tween-20 (wash buffer) and blocked by incubating with about 150 ml/well of assay buffer (1%, BSA [RIA grade or better] in 50 mM Tris-HCl, 100 mM NaCl, 1 mM MgCl2, CaCl2, MnCl2 pH 7.4) for 60 minutes. […] The blocked plates are emptied and 25 ml/well of inhibitor or standard solution is added to each well. Twenty-five ml of a 30 mg/ml solution of purified av b3 in assay buffer is pipetted into the coated plate. The final concentration of receptor in the assay well is about 15 mg/ml. The plate is incubated on a shaker for 60 minutes. Meanwhile, for each microtite plate, 6 ml buffer solution containing 1.5 mg/ml of mouse monoclonal antibody specific for b3 is prepared. To this solution is added ml of the secondary antibody, which is anti-mouse-Fc-HRP antibody conjugate. For example, for one plate, prepare 6 ml of a 1.5 mg/ml mouse Mab solution to which is added 1 ml of anti-mouse-Fc-HRP antibody stock, (this represents a 1:6000 dilution of the antibody-HRP conjugate). This mixture is allowed to incubate during the receptor-inhibitor incubation. The assay plates are washed 4 times with PBS-Tween and 50 ml/well of the antibody mixture is then pipetted into the plate for a 60 minute incubation. The plate is washed 4 times and the color reaction is developed with 50 ml/well of 0.67 mg/ml o-phenyldiamine in PBS containing 0.012% H2 O2. Alternatively, 16 mM citric acid, 50 mM Na2 PO4 at pH 5.0 can be used as a substrate buffer. The reaction is stopped with 50 ml/well 1 M H2 SO4. The plates are read at 492-405 nm and the data analyzed by four-parameter fit.

GP IIb IIIa [3] = target: T2, GP IIb IIIa (Homo sapiens, UniProt P05106+P08514); test: GP IIb IIIa -von Willebrand factor (vWF) ELISA Assay (vWF/IIbIIIa); format: binding; conditions: Example 30, G # table
T2 construct: from tissue; host or cells: outdated human platelets
T2 sequence (P08514 32-887 limits assumed): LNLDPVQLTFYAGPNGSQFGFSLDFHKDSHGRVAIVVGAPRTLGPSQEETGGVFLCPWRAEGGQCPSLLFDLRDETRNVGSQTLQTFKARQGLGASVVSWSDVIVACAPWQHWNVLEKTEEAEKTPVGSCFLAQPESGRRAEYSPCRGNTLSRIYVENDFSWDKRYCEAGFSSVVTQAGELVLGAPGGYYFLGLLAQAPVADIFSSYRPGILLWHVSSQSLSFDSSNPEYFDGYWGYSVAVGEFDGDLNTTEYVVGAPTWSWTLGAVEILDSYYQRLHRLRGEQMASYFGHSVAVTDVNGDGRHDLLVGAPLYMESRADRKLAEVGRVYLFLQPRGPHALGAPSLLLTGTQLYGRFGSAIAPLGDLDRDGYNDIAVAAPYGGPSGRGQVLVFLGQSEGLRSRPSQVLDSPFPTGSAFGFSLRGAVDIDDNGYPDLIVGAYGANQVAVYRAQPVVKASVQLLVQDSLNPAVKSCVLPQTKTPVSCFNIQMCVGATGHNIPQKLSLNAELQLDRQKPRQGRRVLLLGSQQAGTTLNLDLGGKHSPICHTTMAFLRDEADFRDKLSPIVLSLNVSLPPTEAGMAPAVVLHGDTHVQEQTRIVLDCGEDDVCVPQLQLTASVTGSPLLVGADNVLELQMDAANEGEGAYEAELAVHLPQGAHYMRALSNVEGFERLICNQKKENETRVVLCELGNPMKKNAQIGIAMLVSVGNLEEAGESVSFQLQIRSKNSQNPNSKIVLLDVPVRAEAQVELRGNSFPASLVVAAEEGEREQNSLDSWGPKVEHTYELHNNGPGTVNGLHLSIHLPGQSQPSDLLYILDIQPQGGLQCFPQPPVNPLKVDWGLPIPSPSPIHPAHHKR
T2 sequence (P08514 891-1039 partner limits assumed): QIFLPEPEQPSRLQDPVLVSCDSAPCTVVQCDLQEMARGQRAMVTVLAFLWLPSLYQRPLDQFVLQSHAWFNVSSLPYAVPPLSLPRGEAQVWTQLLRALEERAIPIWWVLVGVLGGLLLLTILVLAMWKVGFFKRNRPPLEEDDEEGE
T2 sequence (P05106 27-788): as the sequence (P05106 27-788) above
Procedure: Microtiter plates are coated with 1.0 mg/ml GP IIb IIIa, prepared by the method of Fitzgerald et al., (Anal. Biochem. 151: 169-177 [1985]) and allowed to incubate overnight in coat buffer. The plates are then washed three times in wash buffer (0.05% Tween 20 in PBS) and 150 ml of assay buffer is added and allowed to incubate for 1-2 hours at room temperature on plate shaker. […] Fifty ml of 4.0 mg/ml vWF (prepared as described by Ledford et al., Thrombosis and Haemostasis, 64(4): 569-575 ]1990]) in assay buffer is then added and allowed to incubate for one hour at room temperature on plate-shaker. The plates are washed three times and the antibody mixture is added (1:5000 of mouse anti-vWF and 1:5000 of rabbit-anti-mouse-Fc-HRP, both commercially available) in assay buffer and incubated for 1 hour at room temperature on plate-shaker. […] The color change of OPD/H2 O2 reagent is read at 492 nm with a 405 nm reference wavelength on the filter photometer.

GP IIb IIIa [4] = target: T2, GP IIb IIIa; test: Fibrinogen-GP IIb IIIa Receptor ELISA Binding Assay (Fg/IIbIIIa)
Procedure, shortened: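 Purified human platelet GP IIb IIIa binding to immobilised purified fibrinogen was run with compound at room temperature for 1 h. IC50 values were determined.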

[5] = Example 29, Cmpd # 1-105, read-out: IC50 Fg/IIbI
[6] = Example 30, G # table, read-out: IC50 (μM) Fg/IIbIIIa

Structure (SMILES)	IC50 [2]	IC50 (GP IIb IIIa [3])	IC50 (GP IIb IIIa [4]; [5])	IC50 (GP IIb IIIa [4]; [6])	IC50 [1]
CN1C(=O)CN(CCC(=O)O)C(=O)c2cc(C#CCCCN)ccc21 [Cmpd 33, 1-methyl-4-(2-carboxyethyl)-7-(5-amino-1-pentynyl)-3,4-dihydro-1H-1,4-benzodiazepine-2,5-dione trifluroacetate]	> 10 µM	0.39 µM	0.096 µM	0.096 µM	85.5 µM
N=C(N)NCCCC#Cc1ccc2c(c1)C(=O)N(CCC(=O)O)CC(=O)N2Cc1cccc([N+](=O)[O-])c1 [Cmpd 36, 1-(3-nitrobenzyl)-4-(2-carboxyethyl)-7-(5-guanidino-1-pentynyl)-3,4-dihydro-1H-1,4-benzodiazepine-2,5-dione trifluroacetate]	3 µM	0.0004 µM	0.0032 µM	0.0032 µM	0.94 µM

More lines, main results first:

IC50 [2]	IC50 (GP IIb IIIa [3])	IC50 (GP IIb IIIa [4]; [5])	IC50 (GP IIb IIIa [4]; [6])	Structure (SMILES)	IC50 [1]
> 10 µM	0.096 µM	0.25 µM	0.245 µM	CN1C(=O)CN(CCC(=O)O)C(=O)c2cc(CCCCNC(=N)N)ccc21 [Cmpd 20]	
> 10 µM	0.78 µM	1.9 µM	1.9 µM	CN1C(=O)CN(CCC(=O)O)C(=O)c2cc(CCCCCN)ccc21 [Cmpd 27, 1-methyl-4-(2-carboxyethyl)-7-(5-amino-1-pentyl)-3,4-dihydro-1H-1,4-benzodiazepine-2,5-dione trifluroacetate]	
> 10 µM	0.024 µM	0.055 µM	0.055 µM	CN1C(=O)CN(CCC(=O)O)C(=O)c2cc(CCCCCNC(=N)N)ccc21 [Cmpd 28, 1-methyl-4-(2-carboxyethyl)-7-(5-guanidino-1-pentyl)-3,4-dihydro-1H-1,4-benzodiazepine-2,5-dione trifluroacetate]	
